Patent publication US20230295571A1, “COMPOSITIONS AND METHODS FOR STEM CELL CHONDROGENESIS” (Washington University, priority 2020, published 2023)
“Also recorded” adds a separate entry of the source.

Experiments:
[1] = test system: WNT2B, WNT3A, WNT4, WNT5B, WNT7B; test: Western blots of WNT proteins in d28 pellets; assay type: cell-based, human
Experimental: Western blots. To examine the effect of WNT-C59 on WNT inhibition in the pellets at protein levels, Western blot analysis was performed on d28 pellets with or without WNT-C59 treatments. Six to eight pellets per experimental group were pooled and digested with 0.04% Type II collagenase solution in DMEM/F12 for 1 h. Cells were washed once with PBS and lysed in RIPA buffer (Cell Signaling Technology, #9806S) with protease inhibitor (ThermoFisher, #87786) and phosphatase inhibitor (Santa Cruz Biotechnology, #sc-45044). Protein concentration was measured using the BCA Assay (Pierce). Ten micrograms of proteins for each well were separated on 10% sodium dodecyl sulfate-polyacrylamide gel electrophoresis gels with prestained molecular weight markers (Bio-Rad, 161-0374) and transferred to a polyvinylidene fluoride (PVDF) membrane. The PVDF membrane blots were incubated overnight at 4° C. with the following primary antibodies: anti-WNT2B (1:350, Abcam, ab178418), anti-WNT3A (1:1000, Abcam, ab81614), anti-WNT4 (1:500, Abcam, ab91226), anti-WNTSB (1:500, Abcam, ab93134), anti-WNT7B (1:2000, Abcam, ab155313) and anti-GAPDH (1:30000, Proteintech 60004-1-Ig) for loading control, respectively. […] Immunoblots were imaged and analyzed using the iBright FL1000 Imaging System (Thermo Fisher). […]

[2] = test system: hiPSC chondrogenic pellets; test: RNA-FISH of d28 pellets for WNT3A, WNT4 and COL2A1; assay type: cell-based, human; settings: d28 pellets vs TGF-β3-treated
Experimental: RNA fluorescence in situ hybridization (RNA-FISH). […] Pellets were cryo-sectioned at 10 μm thick and fixed using 4% paraformaldehyde in PBS on ice for 10 min. Sample pre-treatment and RNA probe hybridization, amplification, and signal development were performed using the RNAscope Multiplex Fluorescent Reagent Kit v1 (Advanced Cell Diagnostics, #320850) following the manufacturer's instruction. Samples were imaged with multichannel confocal microscopy (Zeiss LSM 880). Tiled images with Z-stacks were taken at 20× magnification to capture the entire pellet. Maximum intensity projection, a process in which the brightest pixel (voxel) in each layer along Z direction is projected in the final 2D image, was performed using Zeiss Zen Blue (version 2.5).

In the case of `Cc1cc(-c2ccc(CC(=O)Nc3ccc(-c4cccnc4)cc3)cc2)ccn1` [WNT-C59], the WNT5B protein [1] is reported as “only moderately inhibited”, the “protein levels of WNT2B, WNT3A, WNT4, and WNT7B” value [1] is reported as “decreased” and the “COL2A1 RNA-FISH labeling” value [2] is reported as “more homogenous distribution; also recorded: increased”. The “WNT3A and WNT4 expression (RNA-FISH)” value [2] was “decreased”.
